Measurements as given in patent US20120015901A1, “METHODS AND PREPARATIONS FOR PROTECTING CRITICALLY ILL PATIENTS” (priority 2009, published 2012).

How the values were obtained:
[1] = tested on: wild type yeast (BY4741) and null mutants; assay: Yeast chronological aging, survival plating (clonogenicity); assay type: cell-based; conditions: for Pro-survival effect of spermidine application (compared to WT): 4 mM; for increase of survival: day 20, 4 mM spermidine
Description: Experiments were carried out in BY4741 (MATa his3Δ1 leu2Δ0 met15Δ0 ura3Δ0) and respective null mutants, obtained from Euroscarf. The double mutant Δiki3Δsas3 was generated according to Gueldener at al. (2002) Nucleic Acids Res. 30, e23 by using gene-specific URA3-knockout cassette, amplified by PCR with pUG72 as template (Lovaas & Carlin (1991) Free Radic Biol Med 11, 455-46.). […] All spe1 double mutant strains were obtained through mating and sporulation of BY4741 Δspe1 with the respective BY4742 ([…]) single mutant strains. Single and double mutant strains were verified for correct gene deletion by PCR and further checked for consistent auxotrophies. […] Strains were grown at 28° C. on SC medium containing 0.17% yeast nitrogen base (Difco), 0.5% (NH4)2SO4 and 30 mg/l of all amino acids (except 80 mg/l histidine and 200 mg/l leucine), 30 mg/l adenine, and 320 mg/l uracil with 2% glucose (SCD). […] To construct NHP6A-EGFP in pUG35-Ura (giving rise to a C-terminally tagged chimeric fusion protein under control of the met25-Promotor) the insert was amplified by PCR using genomic DNA from BY4741 as template and cloned into pUG35 using the EcoRI restriction site. The EGFP-ATG8 construct in pUG36-Ura (N-terminally tagged fusion protein) was similarly generated, using EcoRI and ClaI restriction sites.
In case of experiments with Δspe1 (FIG. 24 A-E), all strains were inoculated to 5·10^4 cells/ml. […] Therefore, for calculation of survival rates in experiments using Δiki3Δsas3, cell numbers of each sample were determined after two pulse of sonication on ice with Sonifier 250 from Benson (Duty Cycle: 35; Output Control: 2.5). Tests for apoptotic (TUNEL and Annexin V staining) and necrotic (PI staining) markers as well as markers for oxidative stress (DHE staining) were performed as described in Dod et al. (1982) Eur J Biochem 121, 401-405). For quantifications using flow cytometry (BD FACSAria), 30,000 cells were evaluated and analyzed with BD FACSDiva software. Spermidine (S4139, Sigma, Austria) and putrescine (P5780, Sigma, Austria; 1 mM final concentration) were added to stationary cultures at day 1 of the aging experiments (24 h after inoculation). 1 M aqueous stock solution of spermidine was stored in one use aliquots at −20° C. for no longer than 1 month. For adjustment of extracellular pH (pHex) to 6 (±0.5), the required amount of sodium hydroxide was added 30 h after inoculation. The pHex was maintained at approximately 6 (±0.5) throughout the aging.

C57BL/6 mice = assay: Aging mice with spermidine in drinking water; assay type: in vivo
Excerpt: Male and female C57BL/6 mice were purchased from the Institut für Labortierkunde und-genetik, Himberg, Austria. All animals were used at an age between 12 and 16 weeks. All mice were kept and treated according to institutional guidelines and Austrian law and the experiments were approved by the responsible governmental commission. For each group, one male and two female mice were housed singly and fed ad libitum with regular food (pellets) and spermidine was supplemented to drinking water in concentrations of 0.3 and 3 mM for 200 days. Controls were given pure drinking water. Drinking water was replaced every 2-3 days and spermidine freshly added from 1 M aqueous stock (spermidine/HCl pH 7.4), which was kept at −20° C. for no longer than one month. […] At the end of the experiment, the animals were anesthetized by ether inhalation, and exsanguinated by heart puncture. Peripheral blood was allowed to clot for 20 min, and serum was obtained by centrifugation at 200 g for 10 min. The spleens and livers (shock frozen in liquid nitrogen and stored at −80° C. upon further use) were immediately excised. Serum was used for determination of free thiol groups by Ellmans' reaction (Ellman (1959) Arch Biochem Biophys 82, 70-77 and Riener et al. (2002) Anal Bioanal Chem 373, 266-276 (2002).) as described previously (Schraml et al. (2007) Exp Gerontol 42, 1072-1078).
Extraction of polyamines from mice liver tissue was performed according to the freeze/thaw-method described by (Minocha et al. (1994)J Plant Growth Regul 13, 187-193) with slight modifications. […]
Polyamines were determined according to the method described previously by Gianotti et al. (V. Gianotti et al. (2008) J Chromatogr A 1185, 296-300.). […]
Polyamines were detected in MRM mode using following transitions: spermidine (m/z 146->72, CE 34 eV), putrescine (m/z 89->72, CE 28 eV), bis(hexamethylene)-triamine as internal standard (m/z 216->100, CE 36 eV). […]

[2] = tested on: chronologically aged yeast cultures; assay: Oxygen consumption and fractionation of upper and lower (quiescent) cells; assay type: cell-based
Description: Oxygen consumption was directly determined in 1.7 ml of chronologically aged yeast cultures transferred to a recording chamber by measuring the decline of oxygen concentration under anaerobic conditions using an oxygen electrode. Slopes were calculated over 15 min within the linear decrease of oxygen (minute 2-17) and normalized to living cells as determined by plating on YEPD agar plates.
Cells were cultured in SCD media as described in section on “Yeast Strains and Molecular Biology”. Percoll density gradient centrifugation was performed according to Allen et al. (Allen et al. (2006) J Cell Biol 174, 89-100). Cell counts for each fraction were determined using a CASY cell counter (Innovatis).

`NCCCCNCCCN` [spermidine] was tested. Which “chronological life span of polyamine depleted cells” value [1] did it give?
The value was “restored”.

And the “Pro-survival effect of spermidine application (compared to WT)” value (“Pro-survival effect … (compared to WT)” below) ([1]; deletions image P00002, HDA2, increased in early aging (fast death of controls), BUT diminished or absent day 15 to 25)?
Its value is “increased during”.

And the “Pro-survival effect … (compared to WT)” value ([1]; single deletion of HDA1)?
Its value is “not affected”.

And the “Pro-survival effect … (compared to WT)” value ([1]; single deletions image P00004, RXT2, SDS3, SAP30)?
The value was “not affected”.

What about the “Pro-survival effect … (compared to WT)” value ([1]; single deletions image P00005, HDA3, HOS1, HOS2, HOS3, HOS4, RPD3, PHO23, SIR2, HST1, HST2, SET3, SIF2) of the same molecule?
The value was “not affected”.

And the “Pro-survival effect … (compared to WT)” value ([1]; single deletions shown as image P00001, survival increased during early aging)?
The value was “reduced”.

What about the “Pro-survival effect … (compared to WT)” value ([1]; single deletions shown as image P00003, during early aging (day 5 to 15)) of the same molecule?
Its value is “slightly reduced”.

And the “increase in yeast life span” value ([1]; BY4741 wild type, spermidine supplied at day 1 (4 mM))?
The value was “up to 4 times”.

What about the “ability of spermidine to extend the chronological life span” value ([1]; deletion of SIR2) of the same molecule?
The value was “did not abrogate”.

And the “longevity upon spermidine application” value ([1]; single deletion of HST1, HST2, HST3, HST4)?
The value was “did not affect longevity”.

What about the increase of survival ([1]; wild type cells) of the same molecule?
Its increase of survival is 5 fold.

And the “anti-aging (pro-survival) effect of spermidine” value ([1]; Δiki3 and Δsas3 strains)?
The value was “partially abrogated”.

And the increase of survival ([1]; Δiki3Δsas3 cells)?
The increase of survival was 1.3 fold.

What about the “ROS accumulation and survival during aging” value ([1]; Δsod2 mutant cells, 4 mM spermidine) of the same molecule?
The value was “temporarily protects from excessive ROS accumulation and loss of survival”.

What about the “increase of serum level of free thiol groups” value (C57BL/6 mice; 3 mM spermidine in drinking water for 200 days) of the same molecule?
The value was ~30%.

And the “food and body weight” value (C57BL/6 mice; 0.3 and 3 mM in drinking water, 200 days (data not shown))?
Its value is “remained unaffected”.

What about the “intracellular spermidine levels in liver cells” value (C57BL/6 mice; spermidine in drinking water, 200 days) of the same molecule?
The value was “significantly increased”.

What about the oxygen consumption ([2]; day 20, 4 mM spermidine) of the same molecule?
The oxygen consumption was “reduced their oxygen consumption”.

What about the “quiescence status (upper and lower cell fractions)” value ([2]; gradient separation, 4 mM spermidine) of the same molecule?
Its value is “resemble the status of quiescence”.
